From patent US9744191B2, “Antimicrobial compositions and methods” (Yale University, priority 2012, dated 2017)
“Also recorded” adds a separate entry of the source.

Columns and labels:
[1] = test system: Saccharomyces cerevisiae MYH500; assay: Growth assays for antifungal compounds combined with fluoride: S. cerevisiae; type: cell-based; details: for fungal growth inhibition compared with NaF: 30 mM and 80 mM, with amphotericin B; for effect of ion on MIC of amphotericin B: tested at 30 mM and 80 mM with amphotericin B; for inhibition of S. cereviciae growth: under the assay conditions, data not shown
Procedure: (§1) Model Organism: Saccharomyces cerevisiae MYH500 [Genotype: his3-del200, leu2-3, ura3-52, lys2-801, trp1-1, gal2]
Methods: • 1. Pick an isolated yeast colony (S. cerevisiae MYH500) from a plate, inoculate into 2 mL YPD medium in a 14 mL snap-cap tube and grow for 12 h at 30° C. on a shaker (200 rpm). The O.D.600 of the culture should be approximately 1.30. • 2. Two growth methods are used. (i) If culturing cells in 14 mL snap-cap tubes, dilute the cells 1:3 (1 vol. of 12 hr cell culture plus 2 vol. medium). Then, inoculate 2 mL YPD medium with 20 μL of 1/3 diluted cells (1% inoculation). […] (ii) For growth curve measurements, culture cells in a honeycomb 2 plate (Oy Growth Curves Ab Ltd) with 400 μL of medium inoculated with 8 μL of 1:6 diluted cells (1% inoculation). […] Supplement a fungicide and/or fluoride in the culture as necessary for each experiment.

[2] = test system: Neurospora crassa (FGSC #2225); assay: Growth assays for antifungal compounds combined with fluoride: N. crassa; type: cell-based
Procedure: Model Organism: Neurospora crassa (FGSC #2225) [Genotype: N. crassa, A]
Methods: • 1. Recover N. crassa on a slant with minimal medium at 25° C. for 5-6 days to grow spores. • 2. Re-suspend two loops of spores in 2 mL minimal medium. • 3. Inoculate 20 μL into 2 mL minimal medium in an autoclaved 16×150 mm glass tube with cap. • 4. Supplement a fungicide and/or fluoride in the culture as necessary for each experiment. • 5. Grow for 24 h at 25° C. on a shaker (200 rpm).

[3] = test system: Candida albicans (SC5314; ATCC number MYA-2876); assay: Growth assays for amphotericin B combined with fluoride: C. albicans; type: cell-based; details: for effect on C. albicans growth: liquid medium, 48 hours
Procedure: Organism: Candida albicans (SC5314; ATCC number MYA-2876)
Methods: • 1. Pick an isolated C. albicans yeast colony from a plate, inoculate into 2 mL YPD medium in a 17 mL screw-cap tube and grow for 12 h at 28° C. on a shaker (200 rpm). The O.D.600 of the culture should be approximately 3.6. • 2. Two growth methods were used. (i) If culturing cells in 17 ml screw-cap tubes, dilute the cells 1:5 (1 volume of 12 hr cell culture plus 4 volumes of medium). Inoculate 2 mL YPD medium with 20 μL of 1-to-5 diluted cells (1% inoculation). Incubate at 28° C. and 200 rpm for 9 hours before measuring O.D. (ii) For growth curve measurements, culture cells in a honeycomb 2 plate with 400 μL of medium inoculated with 8 μL of 1-to-10 diluted cells (1% inoculation). Culture for 48 hrs at 28° C., measuring OD600 every 15 m without shaking in the Bioscreen C MBR instrument. • 3. Supplement a fungicide and/or fluoride in the culture as necessary for each experiment.

[4] = test system: Saccharomyces cerevisiae MYH500; assay: Fungicidal fluoride assay (colony counts after culture in fluoride); type: cell-based; details: 300 mM fluoride in liquid medium, 160 minute incubation
Procedure: CrcB proteins are most likely fluoride transporters. The fungal expression of crcB and the subsequent ejection of fluorides from cells is a major mechanism for how these organisms overcome fluoride toxicity. To assess whether fluoride simply halts fungal growth (fungistatic) or kills fungal cells (fungicidal), a culture of Saccharomyces cereviciae and added 300 mM fluoride to the medium was prepared. Samples of this mixture were taken at various times, plated, and the number of resulting colonies were recorded (FIG. 1). […] Therefore, compounds that facilitate the uptake and/or retention of fluoride, or otherwise inhibit the fluoride toxicity mitigation responses of fungi, also function as fungicidal compounds when used in combination with fluoride.
as §1
Medium: YPD (liquid and solid)
• 1. Pick an isolated yeast colony (S. cerevisiae MYH500) from a plate, inoculate into 2 mL YPD medium (liquid) in a 14 mL snap-cap tube and grow for 12 h at 30° C. on a shaker (200 rpm). • 2. Dilute 20 μL of the culture into 2 mL medium and mix. Remove a 20 μL aliquot and transfer to 2 mL YPD medium with 300 mM NaF. Grow at 30° C. on a shaker (200 rpm) for 10, 20, 40, 80, 160 and 240 m. • 3. At each time point, transfer 100 μL culture to an agar plate and distribute. • 4. […]

[5] = test system: Escherichia coli crcB knock-out; details: E. coli crcB knock-out compared to wild-type; cited from earlier work
[6] = target: T1, crcB fluoride transporter (Escherichia coli, UniProt P37002); assay: Fluoride riboswitch beta-galactosidase reporter assay in E. coli cells with imipramine; type: cell-based
T1 construct: endogenous in cells; host or cells: E. coli cells carrying a fluoride riboswitch beta-galactosidase reporter construct
Description: Fluoride riboswitch fused to a beta-galactosidase reporter gene. Construct is present in E. coli cells and cells are exposed to concentrations of sodium fluoride and imipramine (x-axis) as noted in FIG. 10.

[7] = test system: Saccharomyces cerevisiae MYH500; assay: Growth assays for Novexatin combined with fluoride: S. cerevisiae; type: cell-based; details: S. cereviciae; for improvement in MIC at about 24 hours: 30 mM NaF, approximately 24 hours (26.25 h)
Procedure: as §1
Methods: • 1. Pick an isolated yeast colony (S. cerevisiae MYH500) from a plate, inoculate into 2 mL YPD medium in a 14 mL snap-cap tube and grow for 12 h at 30° C. on a shaker (200 rpm). The O.D.600 of the culture should be approximately 1.30. • 2. For growth curve measurements, culture cells in a honeycomb 2 plate with 80 μL of medium (final volume) inoculated with 2 μL of 1:12 diluted cells. Culture for 48 hrs at 30° C., measuring O.D.600 every 15 m without shaking in the Bioscreen C MBR instrument. • 3. Supplement a fungicide and/or fluoride in the culture as necessary for each experiment.

T1 sequence (P37002 whole entry): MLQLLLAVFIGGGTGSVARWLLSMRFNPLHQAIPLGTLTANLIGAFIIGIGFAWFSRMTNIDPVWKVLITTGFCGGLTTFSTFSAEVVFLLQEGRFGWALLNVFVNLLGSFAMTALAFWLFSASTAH

In the case of [Cl-].[K+] [KCl], the “fungal growth inhibition compared with NaF” value [1] is reported as “consistently less effective than NaF” and the “effect of ion on MIC of amphotericin B” value [1] is reported as “improve the MIC values of amphotericin B”.

In the case of [Cl-].[Na+] [NaCl], the “fungal growth inhibition compared with NaF” value [1] is reported as “consistently less effective than NaF” and the “effect of ion on MIC of amphotericin B” value [1] is reported as “improve the MIC values of amphotericin B”.

For C[C@@H]1[C@H](O)[C@@H](C)/C=C/C=C/C=C/C=C/C=C/C=C/C=C/[C@H](O[C@@H]2O[C@H](C)[C@@H](O)[C@H](N)[C@@H]2O)C[C@@H]2O[C@](O)(C[C@@H](O)C[C@@H](O)[C@H](O)CC[C@@H](O)C[C@@H](O)CC(=O)O[C@H]1C)C[C@H](O)[C@H]2C(=O)O [amphotericin B], the “effect of combination on growth inhibition” value ([1]; 10 nM amphotericin B in combination with a range of fluoride concentrations) was “dramatic increase in the growth-inhibition effects of fluoride”, the “effect on cell growth” value ([1]; 10 nM amphotericin B used alone) was “almost no effect on cell growth” and the “growth inhibition effect on S. cereviciae” value ([1]; 20 nM amphotericin B alone) was “almost no growth inhibition effect”. The “improvement in MIC for S. cereviciae” value ([1]; 30 mM fluoride added to liquid medium) was “approximately 10 fold”, the “improvement in MIC for S. cereviciae” value ([1]; 80 mM fluoride) was ~30 fold and the “amphotericin B concentration required to almost completely inhibit growth” value ([1]; absence of fluoride, over 48 hours) was 300 nM. For the same compound, the “effect on S. cereviciae growth” value ([1]; amphotericin B 30 to 70 nM, absence of fluoride) was “only marginally delay near full growth”, the “amphotericin B concentration required to prevent N. crassa growth” value ([2]; amphotericin B tested independently, 24 h) was “greater than 300 nM” and the “reduction of MIC for N. crassa” value ([2]; combined with 10 mM fluoride) was “at least 4 fold”. The “reduction of MIC for N. crassa” value ([2]; combined with 30 mM fluoride) was ≥ 10 fold and the “MIC for C. albicans” value ([3]; medium supplemented with 30 mM fluoride) was ~0.05 µM.

For [F-].[Na+] [fluoride, Sodium fluoride], the “loss of cell viability (colonies after plating)” value [4] was “near complete killing”, the “effect on fungal growth” value ([1]; 60 mM fluoride combined with 20 nM amphotericin B) was “complete inhibition of growth” and the “effect on fungal growth” value ([1]; 60 mM fluoride tested alone) was “only a modest effect on fungal growth”. For the same compound, the “lengthening of time to near full culture growth” value ([1]; 80 mM fluoride alone) was “two fold”, the “effect on S. cereviciae growth” value ([1]; fluoride alone, 30 mM in liquid medium) was “only marginally affects” and the “fluoride concentration required to completely inhibit fungal growth” value ([1]; fluoride alone, 48-hour culture) was > 100 mM. The “fluoride concentration required to completely prevent N. crassa growth” value ([2]; fluoride tested independently, 24 h) was “greater than 80 mM”, the “effect on C. albicans growth” value ([3]; 100 mM fluoride alone) was “only a modest inhibitory effect” and the “effect on C. albicans growth” value ([3]; 300 mM fluoride alone) was “completely prevented growth”. For the same compound, the “increase in sensitivity to fluoride of crcB knock-out strain” value [5] was “approximately 200 fold”.

In the case of CN(C)CCCN1c2ccccc2CCc2ccccc21 [imipramine, Imipramine], the “reporter gene expression (fluorescence, substrate 4-MUG)” value ([6]; 330 μM imipramine, E. coli cells with riboswitch-reporter construct, sodium fluoride) is reported as “increased expression of the reporter gene” and the “reporter gene expression with imipramine in cells lacking CrcB” value ([6]; E. coli cells lacking the gene for fluoride transporter protein CrcB) is reported as “substantially reduced”.

In the case of CN(C/C=C/C#CC(C)(C)C)Cc1cccc2ccccc12 [terbinafine], the “inhibition of S. cereviciae growth” value [1] is reported as “did not significantly inhibit S. cereviciae growth”.

In the case of Cc1cccc(N(C)C(=S)Oc2ccc3ccccc3c2)c1 [tolnaftate], the “inhibition of S. cereviciae growth” value [1] is reported as “did not significantly inhibit S. cereviciae growth”.

With aculeacin A the “effect of fluoride on inhibition of S. cereviciae growth by the antifungal” value ([1]; 30 mM fluoride) was “not affected at all; also recorded: lack of an effect”.

With cyclic hepta-arginine [NOVEXATIN®] the “improvement in MIC at about 24 hours” value [7] was “A similar result”, the “improvement in MIC at about 24 hours” value ([7]; listed as Novexatin®) was “improvement in MIC” and the “improvement in MIC” value ([7]; combined with 30 mM fluoride, 48 h) was “greater than 3 fold”. For the same compound, the “concentration needed to almost completely prevent fungal growth” value ([7]; over 48 hours, no fluoride) was 3 mM.
